Activity calls are given as the source filed them. No cut-off for these calls is given here.
What was measured:
Histone deacetylase = test: Inhibition of HDAC in human HeLa nuclear extract using Fluor de Lys as substrate incubated for 20 mins by fluorometric assay; type: subcellular, Nucleus
A549 = test: Cytotoxicity against human A549 cells assessed as reduction in cell viability incubated for 72 hrs by EZ-Cytox colorimetric assay; type: functional, cell-based; settings: for IC50: A549, 72 h
HeLa = test: Cytotoxicity against human HeLa cells assessed as reduction in cell viability incubated for 72 hrs by EZ-Cytox colorimetric assay; type: functional, cell-based
MDA-MB-231 = test: Cytotoxicity against human MDA-MB-231 cells assessed as reduction in cell viability incubated for 72 hrs by EZ-Cytox colorimetric assay; type: functional, cell-based; settings: for IC50: MDA-MB-231, 72 h
SW480 = test: Cytotoxicity against human SW480 cells assessed as reduction in cell viability incubated for 72 hrs by EZ-Cytox colorimetric assay; type: functional, cell-based; settings: for IC50: SW480, 72 h
U2OS = test: Cytotoxicity against human U2OS cells assessed as reduction in cell viability incubated for 72 hrs by EZ-Cytox colorimetric assay; type: functional, cell-based

Compound	IC50 (Histone deacetylase) [µM]	IC50 (SW480) [µM]	IC50 (U2OS) [µM]	IC50 (A549) [µM]	IC50 (HeLa) [µM]	IC50 (MDA-MB-231) [µM]	further results
CC(/C=C/C(=O)NO)=C\[C@@H](C)C(=O)c1ccc(N(C)C)cc1							Activity (A549): Active; Activity (HeLa): Active; Activity (MDA-MB-231): Active; Activity (SW480): Active; Activity (U2OS): Active
CC(/C=C/C(=O)NO[C@@H]1O[C@H](CO)[C@@H](O)[C@H](O)[C@H]1O)=C\[C@@H](C)C(=O)c1ccc(N(C)C)cc1	23.63	72	94.9				
CC(/C=C/C(=O)Nc1ccc(C(=O)N[C@@H](CCC(N)=O)C(=O)O)cc1)=C\[C@@H](C)C(=O)c1ccc(N(C)C)cc1	19.96	> 100	> 100	> 100	> 100	> 100	
CC(/C=C/C(=O)N[C@@H](CCC(=O)O)C(=O)O)=C\[C@@H](C)C(=O)c1ccc(N(C)C)cc1	> 100						
C[C@H](C[C@@H](C)C(=O)c1ccc(N(C)C)cc1)C(=O)O	39.67	> 100	> 100	> 100	> 100	> 100	

Further lines, with some results ahead:

IC50 (Histone deacetylase) [µM]	Compound	IC50 (SW480) [µM]	IC50 (U2OS) [µM]	IC50 (A549) [µM]	IC50 (HeLa) [µM]	IC50 (MDA-MB-231) [µM]	further results
> 100	CC(/C=C/C(=O)N[C@@H](CCC(N)=O)C(=O)O)=C\[C@@H](C)C(=O)c1ccc(N(C)C)cc1						
> 100	CNc1ccc(C(=O)[C@H](C)C[C@@H](C)C(=O)O)cc1	> 100	> 100	> 100	> 100	> 100	
> 100	CC(/C=C/C(N)=O)=C\[C@@H](C)C(=O)c1ccc(N(C)C)cc1						
95.13	CC(/C=C/C(=O)O)=C\[C@@H](C)C(=O)c1ccc(N(C)C)cc1 [TRICHOSTATIC ACID]						
> 100	CNC(=O)/C=C/C(C)=C/[C@@H](C)C(=O)c1ccc(N(C)C)cc1						
